Source: ChEMBL document CHEMBL5465560, “Selectivity Literature for EUbOPEN Chemogenomic Library” (2024)

Legend:
[1] = target: 5-hydroxytryptamine receptor 1A (Homo sapiens, UniProt P08908); assay: Selectivity interaction (BET inhibitor selectivity panel (Human SPA binding assay)) EUB0000102c HTR1A
[2] = target: Substance-K receptor (Homo sapiens) (UniProt P21452); assay: Selectivity interaction (CEREP panel (GPCRs, ion channels, and transporters)) EUB0000102c TACR2; settings: at 10 µM
[3] = target: Potassium voltage-gated channel subfamily KQT member 1 (Homo sapiens, UniProt P51787); assay: Selectivity interaction (BET inhibitor selectivity panel (Human Blocker ionworks assay)) EUB0000102c KCNQ1
[4] = target: Sodium-dependent noradrenaline transporter (Homo sapiens, UniProt P23975); assay: Selectivity interaction (BET inhibitor selectivity panel (Human SPA binding assay)) EUB0000102c SLC6A2
[5] = target: 5-hydroxytryptamine receptor 3A (Homo sapiens, UniProt P46098); assay: Selectivity interaction (BET inhibitor selectivity panel (Human antagonist intracellular Ca2+ fluorescence assay)) EUB0000102c HTR3A; type: cell-based
[6] = target: Potassium voltage-gated channel subfamily E member 1 (Homo sapiens, UniProt P15382); assay: Selectivity interaction (BET inhibitor selectivity panel (Human Blocker ionworks assay)) EUB0000102c KCNE1
[7] = target: Voltage-gated inwardly rectifying potassium channel KCNH3 (Homo sapiens, UniProt Q9ULD8); assay: Selectivity interaction (BET inhibitor selectivity panel (Human FP binding assay)) EUB0000102c KCNH3
CREB-binding protein = CREB-binding protein (Homo sapiens, UniProt Q92793); assay: Selectivity interaction (Bromodomain panel (DSF assays, literature)) EUB0000102c CREBBP
[8] = target: Voltage-dependent P/Q-type calcium channel subunit alpha-1A (Homo sapiens, UniProt O00555); assay: Selectivity interaction (BET inhibitor selectivity panel (Human blocker intracellular Ca2+ fluorescence assay)) EUB0000102c CACNA1A; type: cell-based
[9] = target: T1, Homeodomain-interacting protein kinase 2 (Homo sapiens, UniProt Q9H2X6); assay: Selectivity interaction (Eurofins binding assay) EUB0000008b HIPK2
Target sequence in this assay (Q9H2X6 whole entry): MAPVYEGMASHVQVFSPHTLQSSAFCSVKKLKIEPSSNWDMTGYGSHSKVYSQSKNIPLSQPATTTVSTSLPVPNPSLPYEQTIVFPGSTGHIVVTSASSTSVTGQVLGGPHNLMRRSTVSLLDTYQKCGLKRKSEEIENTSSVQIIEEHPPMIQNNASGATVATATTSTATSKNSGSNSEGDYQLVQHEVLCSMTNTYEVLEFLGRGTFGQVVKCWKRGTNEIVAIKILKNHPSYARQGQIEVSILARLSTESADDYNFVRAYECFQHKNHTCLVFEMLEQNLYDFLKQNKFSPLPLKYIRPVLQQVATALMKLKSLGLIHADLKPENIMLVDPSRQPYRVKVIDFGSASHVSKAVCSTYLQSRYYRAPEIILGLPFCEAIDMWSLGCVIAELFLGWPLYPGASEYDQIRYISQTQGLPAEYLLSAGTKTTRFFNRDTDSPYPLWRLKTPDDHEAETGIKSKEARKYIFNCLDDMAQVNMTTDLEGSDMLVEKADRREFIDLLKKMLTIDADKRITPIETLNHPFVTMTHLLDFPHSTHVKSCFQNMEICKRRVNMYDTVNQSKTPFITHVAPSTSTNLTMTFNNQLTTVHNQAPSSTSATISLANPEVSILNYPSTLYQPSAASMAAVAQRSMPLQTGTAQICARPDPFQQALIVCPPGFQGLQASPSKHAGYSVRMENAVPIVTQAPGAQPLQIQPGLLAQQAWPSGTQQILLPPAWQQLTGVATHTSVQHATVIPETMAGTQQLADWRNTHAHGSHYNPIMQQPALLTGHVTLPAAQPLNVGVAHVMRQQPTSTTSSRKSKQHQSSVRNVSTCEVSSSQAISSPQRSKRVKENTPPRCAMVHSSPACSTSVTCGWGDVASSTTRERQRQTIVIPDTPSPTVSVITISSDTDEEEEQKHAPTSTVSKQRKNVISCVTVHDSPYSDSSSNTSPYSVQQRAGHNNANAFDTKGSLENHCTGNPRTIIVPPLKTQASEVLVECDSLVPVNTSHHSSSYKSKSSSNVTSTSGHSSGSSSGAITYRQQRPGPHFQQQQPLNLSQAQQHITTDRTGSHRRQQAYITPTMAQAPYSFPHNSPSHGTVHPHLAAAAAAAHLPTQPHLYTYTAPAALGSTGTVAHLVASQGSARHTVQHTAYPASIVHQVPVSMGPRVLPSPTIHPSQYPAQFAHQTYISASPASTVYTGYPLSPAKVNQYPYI

[10] = target: Homeodomain-interacting protein kinase 4 (Homo sapiens, UniProt Q8NE63); assay: Selectivity interaction (NanoBRET assay (using HEK293T cells)) EUB0000008b HIPK4; type: cell-based, HEK-293T
[11] = target: Glycogen synthase kinase-3 alpha (Homo sapiens, UniProt P49840); assay: Selectivity interaction (Eurofins kinase panel) EUB0000008b GSK3A; settings: at 1 µM
[12] = target: Homeodomain-interacting protein kinase 3 (Homo sapiens, UniProt Q9H422); assay: Selectivity interaction (Eurofins kinase panel) EUB0000008b HIPK3; settings: at 1 µM
[13] = target: T1, Homeodomain-interacting protein kinase 2; assay: Selectivity interaction (NanoBRET assay (using HEK293T cells)) EUB0000008b HIPK2; type: cell-based, HEK-293T
Target sequence in this assay (Q9H2X6 whole entry): as above

[14] = target: T1, Homeodomain-interacting protein kinase 2; assay: Selectivity interaction (Eurofins kinase panel) EUB0000008b HIPK2; settings: at 1 µM
Target sequence in this assay (Q9H2X6 whole entry, looked up): as the sequence (Q9H2X6 whole entry) above

Glycogen synthase kinase-3 alpha, sequence (P49840 2-483 limits assumed): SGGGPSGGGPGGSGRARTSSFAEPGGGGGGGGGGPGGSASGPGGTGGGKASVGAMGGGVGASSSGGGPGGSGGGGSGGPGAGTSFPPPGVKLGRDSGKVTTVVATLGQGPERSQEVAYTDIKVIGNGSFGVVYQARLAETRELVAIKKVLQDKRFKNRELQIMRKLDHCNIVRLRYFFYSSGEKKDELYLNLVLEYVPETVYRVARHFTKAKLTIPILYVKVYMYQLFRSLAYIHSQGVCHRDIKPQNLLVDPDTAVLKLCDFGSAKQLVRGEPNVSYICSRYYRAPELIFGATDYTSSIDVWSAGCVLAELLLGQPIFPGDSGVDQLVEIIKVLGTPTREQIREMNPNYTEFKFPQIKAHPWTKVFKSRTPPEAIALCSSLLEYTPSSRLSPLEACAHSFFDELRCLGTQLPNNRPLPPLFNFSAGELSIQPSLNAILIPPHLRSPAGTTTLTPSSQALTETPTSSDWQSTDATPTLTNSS
Potassium voltage-gated channel subfamily KQT member 1, sequence (P51787 whole entry): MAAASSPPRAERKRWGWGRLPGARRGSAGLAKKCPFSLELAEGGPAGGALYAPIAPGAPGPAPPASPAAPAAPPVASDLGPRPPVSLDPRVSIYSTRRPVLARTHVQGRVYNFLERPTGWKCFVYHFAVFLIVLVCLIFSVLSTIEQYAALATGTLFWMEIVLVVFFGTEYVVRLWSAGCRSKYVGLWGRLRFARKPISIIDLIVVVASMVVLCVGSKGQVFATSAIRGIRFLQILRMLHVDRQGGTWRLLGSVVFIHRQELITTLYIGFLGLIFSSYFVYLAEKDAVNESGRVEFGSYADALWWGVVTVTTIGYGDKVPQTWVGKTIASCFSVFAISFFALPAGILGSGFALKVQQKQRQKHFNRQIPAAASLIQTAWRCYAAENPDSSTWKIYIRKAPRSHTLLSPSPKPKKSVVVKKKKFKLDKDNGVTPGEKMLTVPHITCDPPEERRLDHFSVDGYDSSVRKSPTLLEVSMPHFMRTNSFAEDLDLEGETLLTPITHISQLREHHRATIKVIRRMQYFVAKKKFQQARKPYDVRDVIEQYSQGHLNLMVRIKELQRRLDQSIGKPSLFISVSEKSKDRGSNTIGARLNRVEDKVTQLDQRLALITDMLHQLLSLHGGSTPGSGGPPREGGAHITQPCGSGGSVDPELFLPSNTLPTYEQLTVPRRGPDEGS
Homeodomain-interacting protein kinase 3, sequence (Q9H422 whole entry, looked up): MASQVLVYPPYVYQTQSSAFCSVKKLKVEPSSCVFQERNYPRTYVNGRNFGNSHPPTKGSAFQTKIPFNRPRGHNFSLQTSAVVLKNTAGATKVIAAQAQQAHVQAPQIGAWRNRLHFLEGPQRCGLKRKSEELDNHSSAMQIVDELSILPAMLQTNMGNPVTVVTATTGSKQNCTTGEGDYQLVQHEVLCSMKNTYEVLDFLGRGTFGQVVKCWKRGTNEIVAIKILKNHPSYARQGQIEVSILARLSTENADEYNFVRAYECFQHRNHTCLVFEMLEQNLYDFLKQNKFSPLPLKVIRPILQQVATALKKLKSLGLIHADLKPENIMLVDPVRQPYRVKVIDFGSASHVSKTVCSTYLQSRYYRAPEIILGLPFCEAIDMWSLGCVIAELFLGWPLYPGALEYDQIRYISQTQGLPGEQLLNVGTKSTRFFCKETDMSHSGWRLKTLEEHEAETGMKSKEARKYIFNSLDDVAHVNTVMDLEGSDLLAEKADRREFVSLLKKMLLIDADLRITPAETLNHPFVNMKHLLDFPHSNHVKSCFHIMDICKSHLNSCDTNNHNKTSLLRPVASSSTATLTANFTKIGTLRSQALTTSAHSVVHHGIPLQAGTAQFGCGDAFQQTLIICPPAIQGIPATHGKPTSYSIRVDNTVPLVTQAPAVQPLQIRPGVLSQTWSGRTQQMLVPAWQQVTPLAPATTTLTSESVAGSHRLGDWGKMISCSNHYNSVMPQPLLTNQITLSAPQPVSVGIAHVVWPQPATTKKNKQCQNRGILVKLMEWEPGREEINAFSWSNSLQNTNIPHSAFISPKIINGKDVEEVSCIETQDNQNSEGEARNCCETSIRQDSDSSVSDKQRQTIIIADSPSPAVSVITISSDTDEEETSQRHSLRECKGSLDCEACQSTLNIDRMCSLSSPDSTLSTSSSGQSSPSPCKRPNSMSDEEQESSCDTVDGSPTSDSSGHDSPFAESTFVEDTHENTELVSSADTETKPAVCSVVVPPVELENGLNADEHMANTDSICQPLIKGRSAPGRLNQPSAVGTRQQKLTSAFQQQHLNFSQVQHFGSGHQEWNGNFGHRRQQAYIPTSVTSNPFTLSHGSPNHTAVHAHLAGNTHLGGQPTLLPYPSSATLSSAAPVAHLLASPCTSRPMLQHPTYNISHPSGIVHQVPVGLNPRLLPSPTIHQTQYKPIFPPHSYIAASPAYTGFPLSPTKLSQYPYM
5-hydroxytryptamine receptor 3A, sequence (P46098 whole entry): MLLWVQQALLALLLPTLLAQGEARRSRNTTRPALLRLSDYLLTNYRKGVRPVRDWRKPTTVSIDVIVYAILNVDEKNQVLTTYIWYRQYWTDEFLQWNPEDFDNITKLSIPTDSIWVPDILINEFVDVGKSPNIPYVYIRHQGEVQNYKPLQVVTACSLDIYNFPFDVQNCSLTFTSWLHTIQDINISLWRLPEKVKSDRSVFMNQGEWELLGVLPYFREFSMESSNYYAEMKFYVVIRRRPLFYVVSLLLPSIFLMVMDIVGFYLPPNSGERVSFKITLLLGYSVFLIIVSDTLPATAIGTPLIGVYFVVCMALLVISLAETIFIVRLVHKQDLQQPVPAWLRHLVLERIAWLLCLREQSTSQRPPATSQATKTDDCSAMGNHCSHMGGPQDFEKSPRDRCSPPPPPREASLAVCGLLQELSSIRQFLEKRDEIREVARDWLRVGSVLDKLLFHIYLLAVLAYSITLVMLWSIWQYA
5-hydroxytryptamine receptor 1A, sequence (P08908 whole entry): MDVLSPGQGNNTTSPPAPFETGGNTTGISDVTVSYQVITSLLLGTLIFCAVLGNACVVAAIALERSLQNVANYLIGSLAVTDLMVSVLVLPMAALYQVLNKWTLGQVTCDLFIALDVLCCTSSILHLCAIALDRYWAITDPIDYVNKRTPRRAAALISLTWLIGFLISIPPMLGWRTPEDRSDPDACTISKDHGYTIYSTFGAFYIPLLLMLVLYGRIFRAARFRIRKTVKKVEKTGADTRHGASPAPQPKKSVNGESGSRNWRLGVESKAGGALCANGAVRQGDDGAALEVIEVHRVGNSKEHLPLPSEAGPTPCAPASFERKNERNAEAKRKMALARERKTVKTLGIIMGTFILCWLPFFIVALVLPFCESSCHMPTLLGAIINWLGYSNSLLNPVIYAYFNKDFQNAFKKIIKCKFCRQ
Substance-K receptor (Homo sapiens), sequence (P21452 whole entry): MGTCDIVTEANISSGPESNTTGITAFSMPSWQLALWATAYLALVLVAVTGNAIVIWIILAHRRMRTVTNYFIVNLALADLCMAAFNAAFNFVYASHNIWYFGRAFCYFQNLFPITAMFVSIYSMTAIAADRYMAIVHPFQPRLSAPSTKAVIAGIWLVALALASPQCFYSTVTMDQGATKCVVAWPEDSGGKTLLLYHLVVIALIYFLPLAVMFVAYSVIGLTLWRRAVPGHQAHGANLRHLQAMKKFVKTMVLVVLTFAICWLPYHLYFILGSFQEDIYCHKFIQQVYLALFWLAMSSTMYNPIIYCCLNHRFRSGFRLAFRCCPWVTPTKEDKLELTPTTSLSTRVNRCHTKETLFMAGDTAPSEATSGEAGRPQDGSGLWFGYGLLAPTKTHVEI

| IC50 [1] | % of inhibition [2] | IC50 [3] | IC50 [4] | IC50 [5] | IC50 [6] | IC50 [7] | dTM (CREB-binding protein) | IC50 [8] | IC50 [9] | IC50 [10] | % of activity [11] | % of activity [12] | IC50 [13] | % of activity [14] | SMILES |
| --- | --- | --- | --- | --- | --- | --- | --- | --- | --- | --- | --- | --- | --- | --- | --- |
| > 100 µM | 48% | > 25 µM | > 100 µM | > 50 µM | > 25 µM | 40 µM | < 3 K | 1260 nM |  |  |  |  |  |  | COc1cc2c(cc1-c1c(C)noc1C)ncc1[nH]c(=O)n([C@H](C)c3ccccn3)c12 |
|  |  |  |  |  |  |  |  |  | 23 nM | 5.41 µM | 90% | 94% | > 10 µM | 99% | Cn1cc(-c2ccc3occ(-c4cccc(-c5ccncc5)c4)c3n2)cn1 |
